# Reference: patent US4249005A, “Alkoxymethyl and benzyloxymethyl phenobarbital compounds” (priority 1969, dated 1981)
# Tests used:
# [1] = Acute oral toxicity; parameters: species or system adult albino male mice (Charles River strain); conditions: mouse, in vivo
# Description: (§1) All tests, with the exceptions noted, were conducted on adult albino male mice (Charles River strain); the dosage consisted of the active agent suspended in 10% aqueous acacia and was administered orally unless otherwise indicated.
# (§2) Acute oral toxicity and acute intraperitoneal toxicity were determined in the conventional manner. The results were expressed as LD50, the dose required to produce death in 50% of the animals treated, determined graphically, with the 95% limits shown in parentheses.
# [2] = Anticonvulsant effectiveness against maximal electroshock; format: in vivo, adult albino male mice (Charles River strain); conditions: for ED50: Mus musculus, at time of peak effect, limits in parentheses; for ED50 / Time of peak activity: oral, mice
# Description: as §1
# (§3) Anticonvulsant effectiveness of each agent against maximal electroshock was determined at the time of peak effect. The time of peak anticonvulsant activity was determined by administering dosages of various sizes to a group of animals and administering a maximal electroshock to the animals at intervals thereafter by supply 60 ma. current through a corneal electrode for 0.2 second. […] The time of peak effect thus determined was used for all subsequent tests of anticonvulsant activity on the same active agent.
# The duration of the anticonvulsant effect against maximal electroshock was compared with that of phenobarbital sodium at a dosage level of 0.1 millimole/kg of each.
# [3] = Neurological deficit (Swinyard et al. plus rotorod); parameters: species or system adult albino male mice (Charles River strain); conditions: mouse, in vivo; oral, mice; 95% limits in parentheses
# Description: as §1
# The dosage required to produce a neurological deficit was determined by the method of Swinyard et al., J. Pharmacol. Exptl. Therap. 106, 319 (1952) except that one additional test was employed: the ability of the animal to remain for at least one minute on a "rotorod", a horizontal rod rotated at 6 r.p.m. The results were expressed as TD50, the dose required to produce the effect, determined graphically, with 95% limits.
# [4] = Anticonvulsant effectiveness against Metrazol; format: in vivo, adult albino male mice (Charles River strain); conditions: oral, mice; for ED50: Mus musculus, Metrazol 106.25 mg/kg subcutaneously, limits in parentheses
# Description: as §1
# (§4) Anticonvulsant effectiveness was determined against a convulsive dose of Metrazol (106.25 mg/kg) injected subcutaneously; the criterior for effectiveness was failure to show clonic convulsive seizures. Anticonvulsant activity was determined against a lethal dose of strychnine sulfate (1.5 mg/kg) injected subcutaneously; the criterion was failure to die, even though seizures appeared.
# [5] = Anticonvulsant activity against strychnine; format: in vivo, adult albino male mice (Charles River strain); conditions: Mus musculus, po, read-out: Strychnine, ED50
# Description: as §1, §4
# [6] = reported in Doran, Medicinal Chemistry, 1959; cited from earlier work
# [7] = Acute intraperitoneal toxicity; parameters: species or system adult albino male mice (Charles River strain); conditions: mouse, in vivo, ip, mice, 95% limits in parentheses
# Description: as §1, §2
# [8] = Anticonvulsant activity against maximal electroshock in the rat; format: in vivo; conditions: rat (Sprague Dawley Strain); limits in parentheses
# Description: as §3
# [9] = cited from earlier work
# [10] = Hypnotic activity (loss of the righting reflex); format: in vivo, adult albino male mice (Charles River strain); conditions: any dosage less than a lethal dose for compounds of the invention
# Description: as §1
# [11] = oral, mice, 95% limits in parentheses, read-out: LD50 (oral)
# [12] = 0.1 millimole/kg, maximal electroshock
structure (smiles),measurement,setting,value
"CCCCCCCCCCCCOCN1C(=O)N(COCCCCCCCCCCCC)C(=O)C(CC)(c2ccccc2)C1=O [Example 8, 1,3-dilauryloxymethyl-5-ethyl-5-phenyl barbituric acid]",LD50,[1]; [11],> 500 mg/kg
same,ED50,[2],~50 mg/kg
same,Time of peak activity,[2]; maximal electroshock,2 h
"CCC1(c2ccccc2)C(=O)N(COC)C(=O)N(COC)C1=O [Example 1, 1,3-dimethoxymethyl-5-ethyl-5-phenyl barbituric acid]",TD50,[3],47 mg/kg
same,ED50,[4],47 mg/kg
same,ED50,[5],200 mg/kg
same,LD50,[1]; [11],470 mg/kg
same,hypnotic effect,[6],without effect
same,LD50,[7],490 mg/kg
same,duration of protection against maximal electroshock at about the same level,[2]; 0.1 millimole/kg,more than eight
same,ED50,[2],13.5 mg/kg
same,Time of peak activity,[2]; maximal electroshock,2 h
same,change in the ED50 to protect against maximal electroshock on repeated dosage,[2]; repeated daily dosage of the same animals for four days,no significant change
same,ED50,[8],6.6 mg/kg
"CCCCOCN1C(=O)NC(c2ccccc2)(c2ccccc2)C1=O [Example 6, 3-(n)-butoxymethyl-5,5-diphenylhydantoin]",LD50,[1]; [11],> 500 mg/kg
same,ED50,[2],< 25 mg/kg
O=C1NC(=O)C(c2ccccc2)(c2ccccc2)N1 [diphenylhydantoin],hypnotic activity,[9]; known property,not hypnotic
same,undesirable side effects,[9]; known property,"hypertrophic gingivitis, megaloblastic anemia, toxic psychoses, and hirsutism"
"CCOCN1C(=O)N(COCC)C(=O)C(CC)(c2ccccc2)C1=O [Example 5, 1,3-diethoxymethyl-5-ethyl-5-phenyl barbituric acid]",ED50,[2],< 25 mg/kg
same,Time of peak activity,[2]; maximal electroshock,11/2
"CCC1(CC)C(=O)N(COC)C(=O)N(COC)C1=O [Example 9, 1,3-dimethoxymethyl-5,5-diethyl-barbituric acid]",ED50,[4],7 mg/kg
same,Time of peak activity,"[4]; reported with Metrazol result, test not stated",1 h
same,LD50,[1]; [11],> 1000 mg/kg
same,LD50,[7],~1000 mg/kg
"CCC1(c2ccccc2)C(=O)NC(=O)NC1=O [phenobarbital sodium, reference compound]",time at which protection began to decrease,[2]; [12],four
same,time at which protection was nearly gone,[2]; [12],eight
same,onset of protection against maximal electroshock,"[2]; 0.1 millimole/kg, comparator",less than 0.5 hour
"C=CCC1(C(C)CCC)C(=O)N(COC)C(=O)N(COC)C1=O (stereo not drawn) [Example 11, 1,3-dimethoxymethyl-5-allyl-5-(2-pentyl) barbituric acid]",ED50,[4],~100 mg/kg
same,LD50,[1]; [11],> 500 mg/kg
"COCN1C(=O)NC(c2ccccc2)(c2ccccc2)C1=O [Example 2, 3-methoxymethyl-5,5-diphenylhydantoin]",LD50,"[1]; route not stated with the value (oral unless otherwise indicated), read-out: LD50",~500 mg/kg
same,ED50,[2],< 25 mg/kg
same,duration of anticonvulsant activity (maximal electroshock),[2]; after ingestion,more than 2 hours
same,onset of anticonvulsant activity (maximal electroshock),[2]; after ingestion,less than 0.5 hour
"CCCCOCN1C(=O)N(COCCCC)C(=O)C(CC)(c2ccccc2)C1=O [Example 4, 1,3-di-(n)-butoxymethyl-5-ethyl-5-phenyl barbituric acid]",LD50,[1]; [11],> 500 mg/kg
same,ED50,[2],< 100 mg/kg
"CCC1(c2ccccc2)C(=O)NC(=O)NC1=O [Phenobarbital, phenobarbital]",hypnotic activity,[9]; known property,exhibits hypnotic activity as well as anticonvulsant activity
same,anticonvulsant usefulness,"[9]; long known, treatment of epilepsy",useful as anticonvulsant agents in warm-blooded animals
same,"Hypnotic activity (loss of the righting reflex, onset of sleep)",[10],did exhibit hypnotic activity
"CCCCCCCCCCCCOCN1C(=O)N(COCCCCCCCCCCCC)C(=O)C(CC)(CC)C1=O [Example 10, 1,3-di-n-dodecyloxymethyl-5,5-diethyl barbituric acid]",ED50,[4],~200 mg/kg
same,LD50,[1]; [11],> 1000 mg/kg
"C=CCC1(C(C)CCC)C(=O)N(COCc2ccccc2)C(=O)N(COCc2ccccc2)C1=O (stereo not drawn) [Example 12, 1,3-dibenzyloxymethyl-5-allyl-5-(2-pentyl) barbituric acid]",ED50,[4],~200 mg/kg
same,LD50,[1]; [11],> 1000 mg/kg
